pKd: −log10 of the molar value. “And” between values parts separate entries of the source, which are not always exact repeats. Equal entries are not always repeated. Where two headings read alike, the source gives them in different places.
What was measured:
[1] = tested on: CYP2C19; details: cited from earlier work
[2] = biological target: CYP2E1 (Homo sapiens, UniProt P05181); format: binding
[3] = in vivo; cited from earlier work
[4] = biological target: T1, CYP3A4 (Homo sapiens, UniProt P08684); format: binding; details: SS(3A4) in the presence of 25 μM ANF
Target sequence in this assay (P08684 2-503 limits assumed): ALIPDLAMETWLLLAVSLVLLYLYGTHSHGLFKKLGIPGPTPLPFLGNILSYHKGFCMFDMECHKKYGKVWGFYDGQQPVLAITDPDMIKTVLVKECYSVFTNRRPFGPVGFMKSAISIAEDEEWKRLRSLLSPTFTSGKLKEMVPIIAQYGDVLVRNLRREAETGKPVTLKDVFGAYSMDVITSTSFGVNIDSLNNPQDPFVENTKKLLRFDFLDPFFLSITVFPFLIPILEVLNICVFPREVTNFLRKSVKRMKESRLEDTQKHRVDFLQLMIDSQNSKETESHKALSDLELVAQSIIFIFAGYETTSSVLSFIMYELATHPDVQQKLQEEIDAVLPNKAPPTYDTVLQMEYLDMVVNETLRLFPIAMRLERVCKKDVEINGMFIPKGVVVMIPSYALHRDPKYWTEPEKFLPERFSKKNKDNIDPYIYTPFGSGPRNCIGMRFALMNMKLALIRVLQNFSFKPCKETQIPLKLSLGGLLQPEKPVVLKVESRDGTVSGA

[5] = biological target: T1, CYP3A4; experiment: Fluorimetric assay of BQ debenzylation in intact and CYP2E1-enriched HLM
Target sequence in this assay (P08684 whole entry): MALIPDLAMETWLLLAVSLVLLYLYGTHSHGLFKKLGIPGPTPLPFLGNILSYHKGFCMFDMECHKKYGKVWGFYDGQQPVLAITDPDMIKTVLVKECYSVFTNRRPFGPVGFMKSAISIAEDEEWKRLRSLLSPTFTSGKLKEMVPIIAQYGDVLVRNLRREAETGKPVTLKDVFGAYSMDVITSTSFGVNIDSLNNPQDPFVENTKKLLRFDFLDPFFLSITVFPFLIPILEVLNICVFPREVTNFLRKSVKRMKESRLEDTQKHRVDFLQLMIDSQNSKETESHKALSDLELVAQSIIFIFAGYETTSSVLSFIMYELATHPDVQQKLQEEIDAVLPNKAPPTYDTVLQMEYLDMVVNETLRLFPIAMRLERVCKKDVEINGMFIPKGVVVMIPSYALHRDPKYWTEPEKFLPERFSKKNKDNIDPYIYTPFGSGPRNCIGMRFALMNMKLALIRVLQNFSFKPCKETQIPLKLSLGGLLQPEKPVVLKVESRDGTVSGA

[6] = tested on: CYP1A2; details: cited from earlier work
[7] = tested on: CYP3A5; details: cited from earlier work
[8] = tested on: CYP2E1; details: cited from earlier work
[9] = tested on: CYP3A4; details: prolonged exposure; human hepatocytes; cited from earlier work
[10] = tested on: CYP3A4; details: prolonged exposure; HepG2 cells; cited from earlier work
[11] = biological target: T1, CYP3A4; experiment: Rate of midazolam hydroxylation by pooled HLM; details: 100 μM substrate; for Turnover rate (per metabolizing P450 enzyme): per CYP3A4
Target sequence in this assay (P08684 whole entry): as above

[12] = 25 μM ANF, all four HLM samples

For `CN(C)CCC=C1c2ccccc2CCc2ccccc21` [Amitriptyline], which Km [1] is on record?
Its Km is ~14 µM.

With `O[C@@H](CS)[C@@H](O)CS` (racemic) [DTT, dithiothreitol] as the compound, how does the pKd [2] read?
The pKd was 1.98.

For `C[C@H]1c2cccc(O)c2C(O)=C2C(=O)[C@]3(O)C(O)=C(C(N)=O)C(=O)[C@@H](N(C)C)[C@@H]3[C@@H](O)[C@@H]21` [doxycyclin], which “Rate of metabolism under the influence of chronic alcohol exposure” value [3] is on record?
The value was “increased rate of metabolism”.

Which “(Lipid/CYP2E1)50%” value ([4]; calculated from [CYP2E1]50%) does the source give for `O=c1cc(-c2ccccc2)oc2c1ccc1ccccc12` [ANF, 7,8-benzoflavone] here?
Its value is 604 and 604 ± 62.

And the “FRET Efficiency” value ([4]; from Rmax by Eq. 4)?
The value was 84 ± 20%.

What about the “Effect of ANF on Vmax of BQ metabolism” value ([5]; 25 μM ANF, HLM-A) of the same compound?
Its value is “no statistically significant effect”.

And the “Effect of ANF on the maximal rate of BQ metabolism” value ([5]; 25 μM ANF, HLM-N1)?
The value was “increased the maximal rate of reaction almost two times”.

What about the “Effect of ANF on Vmax of BQ metabolism” value ([5]; 25 μM ANF, HLM-N2) of the same compound?
Its value is “no statistically significant effect”.

And the “Effect of ANF on the maximal rate of BQ metabolism” value ([5]; 25 μM ANF, HLM-N3)?
The value was “over two-fold inhibition”.

What about the “Effect of ANF on S50 values of BQ” value [5, 12] of the same compound?
Its value is “considerably decreased the S50 values”.

And the “Effect of ANF on homotropic cooperativity observed with BQ” value [5, 12]?
Its value is “eliminated homotropic cooperativity”.

Which results are given for `c1ccc(COc2ccc3cccnc3c2)cc1` [BQ, 7-benzyloxyquinoline]?
Turnover number with BQ, times lower than that of CYP3A4 [6]: 8.5 times; Turnover number with BQ, times lower than that of CYP3A4 [7]: 4.3 times; Ability of CYP2E1 to metabolize BQ [8]: lacks any potential to metabolize this substrate; N (Hill coefficient) ([5]; HLM-A+2E1 (1:1 CYP2E1-enriched), +25 μM ANF): 0.85 ± 0.26 (0.03); N (Hill coefficient) ([5]; HLM-A+2E1 (1:1 CYP2E1-enriched), no effector): 1.47 ± 0.30 (0.30); N (Hill coefficient) ([5]; HLM-A, +25 μM ANF): 0.99 ± 0.20 (0.03); N (Hill coefficient) ([5]; HLM-A, no effector): 1.02 ± 0.15; N (Hill coefficient) ([5]; HLM-N1+2E1 (1:1 CYP2E1-enriched), +25 μM ANF): 0.87 ± 0.16 (0.02); N (Hill coefficient) ([5]; HLM-N1+2E1 (1:1 CYP2E1-enriched), no effector): 1.26 ± 0.12 (0.01); N (Hill coefficient) ([5]; HLM-N1, +25 μM ANF): 0.83 ± 0.12 (<10^−2); N (Hill coefficient) ([5]; HLM-N1, no effector): 2.24 ± 0.37; N (Hill coefficient) ([5]; HLM-N2+2E1 (1:1 CYP2E1-enriched), +25 μM ANF): 0.86 ± 0.08 (<10^−2); N (Hill coefficient) ([5]; HLM-N2+2E1 (1:1 CYP2E1-enriched), no effector): 1.13 ± 0.03 (<10^−6); N (Hill coefficient) ([5]; HLM-N2, +25 μM ANF): 1.02 ± 0.37 (0.01); N (Hill coefficient) ([5]; HLM-N2, no effector): 1.92 ± 0.02; Vmax, times lower than that of HLM-A ([5]; HLM-N2, no effector): 2.2 times; N (Hill coefficient) ([5]; HLM-N3+2E1 (1:1 CYP2E1-enriched), +25 μM ANF): 1.02 ± 0.24 (0.07); N (Hill coefficient) ([5]; HLM-N3+2E1 (1:1 CYP2E1-enriched), no effector): 1.28 ± 0.09 (0.01); N (Hill coefficient) ([5]; HLM-N3, +25 μM ANF): 1.22 ± 0.30 (0.03); N (Hill coefficient) ([5]; HLM-N3, no effector): 2.09 ± 0.44; Vmax, times lower than that of HLM-A ([5]; HLM-N3, no effector): 1.4 times; Hill coefficient ([5]; all three samples of HLM-N, no effector): 1.9 – 2.2; Vmax of HLM-A relative to HLM-N1 ([5]; no effector): over six times higher

For `CCO` [ethanol], which “Concentration of ethanol giving a noticeable elevation in the CYP3A4 content” value [9] is on record?
The value was ≥ 50000 µM.

What about the “Concentration of ethanol giving a noticeable elevation in the CYP3A4 content” value [10] of the same compound?
Its value is ≥ 50000 µM.

With `Cc1ncc2n1-c1ccc(Cl)cc1C(c1ccccc1F)=NC2` [Midazolam] as the compound, how does the “Turnover rate (per CPR)” value ([11]; HLM-A) read?
The value was 11.2 ± 5.3 min⁻¹.

And the “Turnover rate (per metabolizing P450 enzyme)” value ([11]; HLM-A)?
The value was 6.8 ± 3.2 min⁻¹.

And the “Turnover rate (per CPR)” value ([11]; HLM-N2)?
Its value is 7.3 ± 2.1 min⁻¹.

What about the “Turnover rate (per metabolizing P450 enzyme)” value ([11]; HLM-N2) of the same compound?
The value was 3.3 ± 0.9 min⁻¹.

And the “Turnover rate (per CPR)” value ([11]; HLM-N3)?
The value was 8.2 ± 4.0 min⁻¹.

And the “Turnover rate (per metabolizing P450 enzyme)” value ([11]; HLM-N3)?
Its value is 3.1 ± 1.5 min⁻¹.

Source: PMC7856178 (Archives of biochemistry and biophysics, 2020)
